Test results reported in patent US4725592A, “1-Acyloxyalkyl esters of cephalosporin” (Takeda Chemical Industries, Ltd., priority 1983, dated 1988).
Like-named read-outs stand apart in the source and are kept apart here.

Legend:
[1] = set-up: species or system mice; conditions: mouse, in vivo; for Bioavailability / AUC / Plasma level of non-ester (Compound [II]) 2 hr: 120 min; for Plasma level of non-ester (Compound [II]) 0.25 hr / Plasma level of non-ester (Compound [II]) 0.5 hr / Plasma level of non-ester (Compound [II]) 1.0 hr / AUC / Plasma level of non-ester (Compound [II]) 2 hr: po, 100 mg/kg; for Plasma level of non-ester (Compound [II]) 0.25 hr: 15 min; for Plasma level of non-ester (Compound [II]) 0.5 hr: 30 min; for Plasma level of non-ester (Compound [II]) 1.0 hr: 60 min
Method: The compounds of Examples (compound Nos. 1 and 2) and, as a control compound, the pivaloyloxymethyl ester of compound [II] (hereinafter referred to briefly as compound A) are administered orally to mice, each compound to one animal, in the dose of 100 mg/kg in terms of the non-ester, i.e. compound [II]. […] As a control, compound [II] is subcutaneously administered to a mouse and the AUC value is calculated as above.

Staphylococcus aureus = conditions: Antimicrobial Agent and Chemotherapy 14, 557-568 (1978); cited from earlier work
Escherichia coli = conditions: Antimicrobial Agent and Chemotherapy 14, 557-568 (1978); cited from earlier work
Klebsiella pneumoniae = conditions: Antimicrobial Agent and Chemotherapy 14, 557-568 (1978); cited from earlier work
Proteus vulgaris = conditions: Antimicrobial Agent and Chemotherapy 14, 557-568 (1978); cited from earlier work
Proteus mirabilis = conditions: Antimicrobial Agent and Chemotherapy 14, 557-568 (1978); cited from earlier work
Proteus morganii = conditions: Antimicrobial Agent and Chemotherapy 14, 557-568 (1978); cited from earlier work

Bioavailability [1]	Plasma level of non-ester (Compound [II]) 0.25 hr [1]	Plasma level of non-ester (Compound [II]) 0.5 hr [1]	Plasma level of non-ester (Compound [II]) 1.0 hr [1]	AUC [1]	Plasma level of non-ester (Compound [II]) 2 hr [1]	Bioavailability ([1]; sc)	Structure (SMILES)	antibacterial activity (Staphylococcus aureus)	antibacterial activity (Escherichia coli)	antibacterial activity (Klebsiella pneumoniae)	antibacterial activity (Proteus vulgaris)	antibacterial activity (Proteus mirabilis)	antibacterial activity (Proteus morganii)
81.4%	74300 ng/mL	21600 ng/mL	5360 ng/mL	31600 ng·h/mL	1800 ng/mL	–	CCCC(OC(=O)CC(C)C)OC(=O)C1=C(CSc2nnnn2CCN(C)C)CS[C@@H]2[C@H](NC(=O)Cc3csc(N)n3)C(=O)N12.Cl.Cl (stereo partly drawn) [Compound No. 2, 1-(3-Methylbutyryloxy)butyl 7β-[2-(2-aminothiazol-4-yl)acetamido]-3-[[[1-(2-dimethylaminoethyl) -1H-tetrazol-5-yl]thio]methyl]ceph-3-em-4-carboxylate dihydrochloride]	–	–	–	–	–	–
41.8%	21000 ng/mL	16200 ng/mL	6100 ng/mL	–	600 ng/mL	–	CN(C)CCn1nnnc1SCC1=C(C(=O)OCOC(=O)C(C)(C)C)N2C(=O)[C@@H](NC(=O)Cc3csc(N)n3)[C@H]2SC1 [A, pivaloyloxymethyl ester of compound [II]]	–	–	–	–	–	–
91.0%	55400 ng/mL	37000 ng/mL	8460 ng/mL	35300 ng·h/mL	2500 ng/mL	–	CC(C)CC(=O)OC(OC(=O)C1=C(CSc2nnnn2CCN(C)C)CS[C@@H]2[C@H](NC(=O)Cc3csc(N)n3)C(=O)N12)C(C)C.Cl.Cl (stereo partly drawn) [Compound No. 1, 1-(3-Methylbutyryloxy)-2-methylpropyl 7β-[2-(2-aminothiazol-4-yl)acetamido]-3-[[[1-(2-dimethylaminoethyl)-1H-tetrazol-5-yl]thio]methyl]ceph-3-em-4-carboxylate dihydrochloride]	–	–	–	–	–	–
–	–	–	–	–	–	100%	CN(C)CCn1nnnc1SCC1=C(C(=O)O)N2C(=O)[C@@H](NC(=O)Cc3csc(N)n3)[C@H]2SC1 [Compound [II], 7β-[2-(2-aminothiazol-4-yl)acetamido]-3-[[[1-(2-dimethylaminoethyl)-1H-tetrazol-5-yl]thio]methyl]ceph-3-em-4-carboxylic acid]	potent antibacterial activity	potent antibacterial activity	potent antibacterial activity	potent antibacterial activity	potent antibacterial activity	potent antibacterial activity
